The test system of series [1] is isolated rat distal colon. As to the kind of experiment: Effect on isolated rat distal colon (spontaneous contractions, organ bath). The conditions noted are these: 0.5 h; male SD rat distal colon strip, Tyrode solution, 37° C., spontaneous contractions observed over 30 minutes. Format: cell-based. On the procedure:
Effect on isolated rat distal colon:
Male SD rats (180-230 g) were used. Animals were fasted for 24 hours prior to experiment. Distal colon was removed immediately after sacrifice and placed in an organ bath containing 25 ml Tyrode solution aerating with 95% O2, 5% CO2 at 37° C. The strip was mounted under 0.5 g tension and spontaneous contractions were recorded isometrically. After the mobility was of a uniform size, test compound was added to an organ bath and the contractions were observed over a 30 minutes period. Effect of test compound was calculated by comparing contractions before and after test compound.

In series [2] the test system is isolated non-pregnant rat uterus. The experiment in a line: Effect on isolated non-pregnant rat uterus (spontaneous contractions, organ bath). As to conditions: 20 min; female SD rat uterus, estradiol-induced oestrus, Locke solution, 37° C., spontaneous contractions observed over 20 minutes. Format: cell-based. As for the experimental part:
Effect on isolated non-pregnant rat uterus
Female SD rats (150-180 g) were used. 48 and 24 hours prior to use, rats were given estradiol (ovahormon benzoat Trademark, Teikoku Hormone Mfg. Co., Ltd.) subcutaneously at a dose of 40 μg/rat to induce oestrus. The animals were killed and uteri were removed. Each strip was placed in an organ bath containing 25 ml Locke solution aerating with 95% O2, 5% CO2 at 37° C. under 1 g tension. Contractions were recorded isometrically. After the spontaneous contractions were of a uniform size, test compound was added to organ bath. The motility was observed over a 20 minutes period. Effect of test compound was calculated by comparing contractions before and after test compound.

The record followed here is patent US6391915B2, “Propanolamine derivatives” (Fujisawa Pharmaceutical Co., Ltd., priority 1997, dated 2002).

As usually defined, the melting point is the temperature of the solid-liquid transition. In general, IC50 refers to the concentration that inhibits the measured activity by half. A high value points to weaker potency.

As to `CCOC(=O)COc1ccc2c(c1)CC(NC[C@H](O)COc1ccccc1)CCC2.Cl` (stereo partly shown), the melting point was in the range of 122 to 128 °C.

Take `C=CCOc1ccccc1OCC(O)CN[C@H]1CCc2ccc(OCC(=O)OCC)cc2C1.O=C(O)C(=O)O` (stereo partly shown): the melting point fell in the range of 105 to 109 °C.

Compound `CCOC(=O)COc1cccc2c1CCCC(NC[C@H](O)COc1ccccc1)C2.Cl` (stereo partly shown) displayed a melting point of 43 to 58 °C.

Take `CCOC(=O)COc1cccc2c1CCCC(N(Cc1ccccc1)C[C@H](O)COc1ccccc1)C2` (stereo partly drawn) [Example 1, (2S)-1-[N-benzyl-(1-ethoxycarbonylmethoxy-6,7,8,9-tetrahydro-5H-benzocyclohepten-6-yl)amino]-3-phenoxy-2-propanol]: the IC50 in series [1] was 0.0042 µM; in series [2] it was 0.37 µM.

In the case of `O=C([O-])COc1cccc2c1CCCC(NC[C@H](O)COc1ccccc1)C2.[Na+]` (stereo partly drawn) [Example 10, sodium [6,7,8,9-tetrahydro-6-[((2S)-2-hydroxy-3-phenoxypropyl)amino]-5H-benzocyclohepten-1-yloxy]acetate], the melting point is 65 °C (dec.).

As to `O=C([O-])COc1ccc2c(c1)CCCC(NC[C@H](O)COc1ccccc1)C2.[Na+]` (stereo partly drawn) [Example 11, Sodium [6,7,8,9-tetrahydro-6-[((2S)-2-hydroxy-3-phenoxypropyl)amino]-5H-benzocyclohepten-2-yloxy]acetate], the melting point was 166 to 174 °C.
